Assay results as given in US9289414B2 (priority 2004, dated 2016).

Tests used:
SVR cells = test: SVR cell proliferation / viability bioassay (angiogenic bioassay); format: cell-based, murine; details: FIG. 1
Protocol: Liquid extract of coal tar was concentrated under vacuum to get crude extract (20.0 mg). This extract was applied on a Sephadex LH 20 (3.0×100 cm) column and eluted with MeOH. The elution was monitored by TLC and similar fractions are combined to get 11 fractions. This fraction was assayed for inhibition of SVR cell viability (Arbiser et al. (1999) J. Am. Acad. Dermatol. 40, 925-929; and Bai et al. (2003) J. Biol. Chem. 278, 35501-35507). […] These changes are similar to what is observed when SVR cells are treated with an EGFR tyrosine kinase inhibitor.
Coal tar fractions were tested for their ability to inhibit the proliferation of SVR cells, an established angiogenic bioassay.

EGFR = test: Drosophila EGFR eye phenotype assay; format: in vivo, Drosophila melanogaster; details: treatment of mutant Drosophila
From the text: The epidermal growth factor receptor pathway controls cell fate throughout phylogeny. Binding of secreted ligands to EGFR on the cell surface initiates a cascade of events that ultimately invokes transcriptional changes in the nucleus. Ligand/receptor interactions are of critical importance during Drosophila eye development, as recruitment and differentiation of almost all photoreceptors are dependent on high levels of activation of the EGFR pathway. Binding of activating ligand to EGFR results in a cascade of membranous and cytoplasmic phosphorylation events.
(§1) In order to test whether carbazole and its derivatives affect EGFR, the compounds were tested using a novel EGFR assay that is amenable to high throughput screening.

Drosophila embryos = test: Normal development of Drosophila embryos; parameters: species or system Drosophila melanogaster; details: in vivo
Protocol: as §1

[1] = test system: signaling lymphocyte activator molecule associated protein (SAP); test: PSK-induced SAP expression in lymphocytes; format: cell-based, human; details: FIG. 2B
interleukin-15 (IL-15) = test: IL-15 production by PSK-activated mononuclear cells; format: cell-based, human; details: PSK-stimulated mononuclear cells, FIG. 2A
From the text: Cytokine production by mononuclear cells plays an important role in psoriasis. One of the cardinal cytokines involved in the pathogenesis of psoriasis is interleukin-15 (IL-15). IL-15 plays several roles that may be important in psoriasis. […] In addition, IL-15 is angiogenic in vivo.

iNOS = iNOS expression, in vitro translation and Western blot of HEK293 and RAW264.7 cells; format: cell-based; details: FIG. 3A-C
Protocol: Reactions were performed at 30° C. for 90 min. Translation products were separated by SDS/PAGE, and bands, representing ^35S-labeled iNOS, were detected by Phosphoimager (Molecular Dynamics). The data shown in FIG. 3A represent two independent experiments done in duplicates.
Transfection and stable cell line production of HEK293 cells was performed by cationic lipid-mediated transient transfection using “LipofectAMINE 2000” (Invitrogen) following manufacturer's instructions. Stable cell line expressing iNOS, were produced by using transfection of iNOS cDNA followed by positive colony selection using G418 (Invitrogen) at concentration of 600 μg/ml. iNOS Induction of mouse macrophages RAW264.7, involved incubating the cells with a mixture of mouse interferon (mIFN)-γ (10 u/ml) and LPS (100 ng/ml).
Cell lysis was performed on collected cells. After gently rinsing the cells twice with phosphate-buffered saline, the cell layer was lysed on ice for 30 min in 40 mM Bis-Tris propane buffer, pH 7.7, 150 mM NaCl, 10% glycerol, 1% Triton-X100 in the presence of protease inhibitors (phenylmethylsulfonyl fluoride (1 mM), pepstatin-A (10 μg/ml), leupeptin (10 μg/ml), aprotinin (10 μg/ml), phenanthroline (10 μg/ml), benzamidine HCl (16 μg/ml)) (PharMingen). […] Total protein concentrations were determined by using a bicinchoninic acid reagent, following the manufacturer's instructions (Pierce). […]

Rac = Rac activation in HUVEC after VEGF stimulation (PAK-1 PBD pull-down); format: cell-based, human; details: carbazole 5 mg/ml pretreatment 1 hr, VEGF 20 ng/ml 5 min, FIG. 5
Protocol: Cells were lysed with ice-cold lysis buffer, pH 7.5, containing 25 mmol/liter HEPES, 150 mmol/liter NaCl, 1% IGEPAL CA-630, 0.25% sodium deoxycholate, 10 mmol/liter MgCl2, 10% glycerol, 25 mmol/liter NaF, 1 mmol/liter EDTA, 1 mmol/liter sodium orthovanadate, 10 μg/ml leupeptin, 10 μg/ml aprotinin, and 1 mmol/liter phenylmethylsulfonyl fluoride. Activated (GTP-bound) Rac was affinity-precipitated with p21-activated kinase-1 protein binding domain peptide, which binds only to Rac-GTP and not Rac-GDP.
p21-Activated kinase-1 protein binding domain-agarose (7.5 μg/mg cell lysate, Upstate Biotechnology) was added, and the reaction mixture was gently rocked at 4° C. for 60 min. The agarose beads were collected by pulsing for 5 s in a microcentrifuge at 14,000×g, and the beads were washed three times with 0.5 ml of lysis buffer. The agarose beads were resuspended in 40 μl of 1×SDS sample buffer and boiled for 5 min. The supernatant was separated by SDS-PAGE on a 12% gel, and the proteins were transferred to nitrocellulose membrane. After blocking for 1 h in PBS containing 5% nonfat dry milk and 0.1% Tween 20, the membrane was incubated with anti-Rac antibody (1:1000 dilution, Upstate Biotechnology) overnight. After incubation with the secondary antibody, Rac was detected by enhanced chemiluminescence.

SMILES	antiproliferative activity (SVR cells)	effect on eye phenotype of mutant Drosophila with active EGFR (EGFR)	effect on normal development of Drosophila embryos (Drosophila embryos)	SAP expression [1]	production of IL-15 (interleukin-15 (IL-15))	levels of nitric oxide synthase enzyme (iNOS)	rac activation in response to VEGF (Rac)
Oc1ccc2c(c1)[nH]c1ccccc12 [2-hydroxy carbazole, 2-hydroxycarbazole]	more potent antiproliferative activity	–	–	–	–	–	–
Oc1ccc2[nH]c3ccccc3c2c1 [3-hydroxy carbazole, 3-hydroxycarbazole]	more potent antiproliferative activity	–	–	–	–	–	–
Oc1cccc2[nH]c3ccccc3c12 [4-hydroxy carbazole, 4-hydroxycarbazole]	more potent antiproliferative activity	correction of the phenotypic defect	no effect	–	–	–	–
c1ccc2c(c1)[nH]c1ccccc12 [carbazole, 9H-Carbazole]	mild antiproliferative activity	correction of the phenotypic defect	no effect	inhibited	inhibited production of IL-15	without affecting levels of enzyme	blocks rac activation
